Test system: NRF2
Assay: NQO1 mRNA levels in skin cultured in the device and treated with an NRF2 activator
Format: cell-based
Details: tissue treated on Day 0 versus Day 4 of culture in the 384-well device
Experimental: FIG. 8A is a perspective view of another embodiment of the present invention 341. […] The base has holes (not shown) which receive fixings 349. […] FIG. 8B is a schematic diagram which summarises an experiment in which skin cultured in the apparatus 341 was treated with a small molecule NRF2 activator (TBE-31) in order to evaluate the intracellular viability of the tissue. NRF2 transcriptionally regulates multiple genes that play both direct and indirect roles in activating intracellular anti-oxidative pathways.

SMILES: C#C[C@]12C=C(C#N)C(=O)C=C1[C@@]1(C)C=C(C#N)C(=O)C(C)(C)[C@@H]1CC2 [TBE-31]
- NRF2 response (NQO1 mRNA levels) in cultured skin: statistically the same
